The values that follow are results of earlier work, collected in patent US20240368262A1, “A MYOSTATIN PATHWAY INHIBITOR IN COMBINATION WITH A GLP-1 PATHWAY ACTIVATOR FOR USE IN TREATING METABOLIC DISORDERS” (SCHOLAR ROCK, INC., priority 2021, published 2024).

The test system of the data set is GIP and GLP-1 receptor. The note with it: Rosenstock et al., Lancet; cited from earlier work.

Take Tirzepatide: the body weight entry was “reduce body weight” and the glycemic control entry is “improve glycemic control”.
